The results in this text go back to PMC12884772, “Macrophagic Sclerostin Loop2‐ApoER2 Interaction Required by Sclerostin for Cardiovascular Protective Action” (Advanced Science, 2025).

This test concerns RAW264.7 macrophages (siLrp8). Briefly: LPS‐induced inflammatory responses in RAW264.7 macrophages (siLrp8) with or without ApoER2 (Lrp8) plasmid. The test is classed as cell-based, mouse. The text has this:
Further, we tracked the dynamic changes of inflammatory responses in mouse RAW264.7 macrophages (with Lrp8 silencing for shielding the influence of endogenous ApoER2). The RAW264.7 macrophages (siLrp8) were transfected with plasmids encoding ApoER2 (Lrp8) or vector, followed by treatment with recombinant mouse sclerostin and induction with LPS for varying durations. In detail, RAW 264.7 macrophages (siLrp8) were divided into 7 groups (n = 3 per group), including (1) Control, (2) LPS, (3) LPS + SOST, (4) Lrp8 + LPS + SOST 250 nM, (5) Lrp8 + LPS + SOST 500 nM, (6) Lrp8 + LPS + SOST 1 µM, and (7) Lrp8 + LPS. Cells in group (4–7) were transfected with plasmids encoding mouse ApoER2 (Lrp8), while cells in group (1–3) were transfected with vector. Twenty four hours later, cells in groups (3), (4), (5), and (6) were treated with recombinant mouse sclerostin at concentration of 1 µM, 250 nM, 500 nM, and 1 µM for 3 h, respectively, while cells in groups (1), (2), and (7) were treated with vehicle.^[ [35] ^] Then, cells in group (2‐7) were treated with LPS (1 µg/mL) for 18 h. All groups of cell lysates were collected for determining the mRNA expression levels of mouse TNF‐α, mouse MCP‐1, and mouse IL‐10 by RT‐PCR. Given the significant efficacy of recombinant mouse sclerostin at a concentration of 1 µM in mouse macrophages, 1 µM was selected for the subsequent studies.
Then, the protein expression/secretion levels of pro‐inflammatory/anti‐inflammatory cytokines and chemokines, macrophage conversion, NF‐κB subcellular localization, phosphorylation, and expression were determined. In detail, RAW 264.7 cells (siLrp8) were divided into 5 groups (n = 3 per group), including (1) Control, (2) LPS, (3) LPS + SOST, (4) Lrp8 + LPS + SOST, and (5) Lrp8 + LPS. RAW 264.7 cells in groups (4) and (5) were transfected with plasmids encoding mouse ApoER2 (Lrp8), while cells in group (1‐3) were transfected with vector. Twenty four hours later, cells in groups (3) and (4) were treated with recombinant mouse sclerostin (SOST, 1 µM) for 3 h, while cells in groups (1), (2), and (5) were treated with vehicle.^[ [35] ^] Then, cells in groups (2), (3), (4), and (5) were treated with LPS (1 µg/mL) for 12 and 18 h. Cell mediums were collected for determining the protein expression/secretion levels of mouse TNF‐α, mouse MCP‐1, and mouse IL‐10 by ELISA.^[ [34] ^] The CD206^+ macrophages and CD11b^+ macrophages were determined by flow cytometry.^[ [36] ^]
Additionally, for the determination of NF‐κB (p65) nuclear translocation, macrophages in groups (3) and (4) were treated with recombinant mouse sclerostin (SOST, 1 µM) overnight, then macrophages in groups (2), (3), (4), and (5) were treated with LPS (1 µg/mL) for 15 and 30 min. The NF‐κB (p65) nuclear translocation in macrophages was examined under microscope, after LPS induction for 15 min.^[ [37] ^] The protein level of NF‐κB (p65) in nuclear and cytoplasm was determined by western blot assay, after LPS induction for 30 min.^[ [38] ^]
Subsequently, for the determination of NF‐κB phosphorylation, macrophages in groups (3) and (4) were treated with recombinant mouse sclerostin (SOST, 1 µM) overnight, then macrophages in groups (2), (3), (4), and (5) were treated with LPS (1 µg/mL) for 6 h. The protein level of phospho‐NF‐κB (p‐p65) was determined by western blot assay, followed by calculating the proportion of p‐p65/total p65 in cells.^[ [39] ^] At the same time, the mRNA expression level of NF‐κB (p65) was determined by RT‐PCR.^[ [40] ^] […]
Total RNA was extracted from cells following the protocols of Trizol reagent (Invitrogen, 15 596 026). Reverse‐transcription was performed to obtain cDNA using HiScript III RT SuperMix kit (Vazyme, R323), and RT‐PCR was accomplished using a HiScript III RT SuperMix kit (Vazyme, R323) in a QuantStudio 7 PRO System (Applied Biosystems). The relative gene expression levels were calculated using the 2^−ΔΔCt method with GAPDH as the reference gene.^[ [40] ^] […]

The mark [1] stands for this setting: 1 µM, ApoER2‐overexpressing macrophages versus LPS+SOST or Lrp8+LPS, LPS 18 h, ELISA.
[2] abbreviates: 1 µM, ApoER2‐overexpressing macrophages, LPS 30 min, western blot.
Where [3] appears, read: 1 µM, ApoER2‐overexpressing, versus LPS group, P < 0.01, LPS 18 h.
Setting [4] is: Lrp8+LPS+SOST 250 nM, 500 nM, 1 µM versus LPS+SOST or Lrp8+LPS, LPS 18 h, RT‐PCR.

In the case of “sclerostin: recombinant human/mouse full‐length sclerostin protein”, the “NF‐κB nuclear translocation” value (1 µM overnight, ApoER2‐overexpressing macrophages, LPS 15 min, immunofluorescence) is recorded as “significantly lower”. Under setting [1], the “Medium protein level of IL‐10” value is “significantly higher”; the “Medium protein levels of TNF‐α and MCP‐1” value is reported as “significantly lower”. In addition, the “Proportion of anti‐inflammatory phenotype (CD206^+)” value (1 µM, ApoER2‐overexpressing macrophages, LPS 12 and 18 h, flow cytometry) is “significantly higher”. Also, under setting [2], the “p65 protein level in the cytoplasmic fraction” value was “elevation” and the “p65 protein level in the nuclear fraction” value was “reduction”. Further, the “mRNA expression level of NF‐κB (p65)” value (1 µM, ApoER2‐overexpressing macrophages, LPS 6 h, RT‐PCR) is recorded as “significantly lower”. For the same substance, the “Protein level of phospho‐NF‐κB (p‐p65)” value (1 µM, ApoER2‐overexpressing macrophages, LPS 6 h, western blot) was “significantly lower”. Besides, under setting [3], the “mRNA expression of MCP‐1” value is given as “significantly suppressed” and the “mRNA expression of TNF‐α” value is “significantly suppressed”. Further, the “mRNA expression of IL‐10” value (1 µM, ApoER2‐overexpressing, versus LPS group, P < 0.05, LPS 18 h) was “significantly promoted”. Moreover, under setting [4], the “mRNA expression level of IL‐10” value was “dose‐dependently higher”; the “mRNA expression levels of TNF‐α and MCP‐1” value is on record as “dose‐dependently lower”. Besides, the “Cytokine/chemokine mRNA and medium protein, macrophage phenotype proportions, NF‐κB nuclear translocation/phosphorylation/mRNA: LPS+SOST versus LPS” value (RAW264.7 (siLrp8) without ApoER2 plasmid, sclerostin 1 µM, LPS 1 µg/mL for varying durations) was “no significant differences”.
